# Test results reported in BindingDB's records for doi:10.1016/j.bmcl.2018.12.057 (Indian Institute of Technology Madras, 2019).
# Biological target: Luciferin 4-monooxygenase (Photinus pyralis, UniProt P08659)
# Test: Activation of firefly luciferase activity expressed in HEK293T cells after 6 hrs by luminescence assay
# Chain of Luciferin 4-monooxygenase (P08659 whole entry): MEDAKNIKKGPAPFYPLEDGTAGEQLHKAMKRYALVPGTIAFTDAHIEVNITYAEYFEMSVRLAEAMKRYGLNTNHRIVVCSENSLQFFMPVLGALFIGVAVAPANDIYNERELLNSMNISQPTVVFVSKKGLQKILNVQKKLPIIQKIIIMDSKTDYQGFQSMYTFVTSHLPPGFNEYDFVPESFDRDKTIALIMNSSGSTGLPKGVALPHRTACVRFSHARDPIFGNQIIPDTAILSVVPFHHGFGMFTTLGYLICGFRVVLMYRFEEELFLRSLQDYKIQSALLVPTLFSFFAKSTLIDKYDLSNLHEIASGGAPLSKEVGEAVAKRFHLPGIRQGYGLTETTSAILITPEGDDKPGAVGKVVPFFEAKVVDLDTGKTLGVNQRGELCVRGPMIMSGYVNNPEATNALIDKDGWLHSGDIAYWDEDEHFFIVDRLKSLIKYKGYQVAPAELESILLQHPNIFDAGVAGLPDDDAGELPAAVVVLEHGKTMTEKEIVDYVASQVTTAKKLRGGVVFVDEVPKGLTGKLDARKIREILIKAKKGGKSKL
structure (smiles),measurement,value
CCCCCCCCCCCCCC(=O)O[C@@H]1[C@@H](C)[C@@]2(O)[C@@H](C=C(CO)C[C@]3(O)C(=O)C(C)=C[C@@H]23)[C@@H]2C(C)(C)[C@]12OC(C)=O [phorbol 13-acetate 12-myristate],EC50,0.01 µM
